# Measured values as given in patent US20240000811A1, “INOSITOL HEXAKISPHOSPHATE ANALOGUES FOR TREATMENT OF CALCIFICATION ASSOCIATED KIDNEY DISEASES” (INOSITEC AG, priority 2020, published 2024).
# Legend:
# [1] = tested on: C57BL/6 male mice on high phosphate diet; experiment: Mouse model of high phosphate-induced kidney damage; assay type: in vivo; conditions: 100 mg/kg s.c. 3 times/week
# Protocol: C57BL/6 male mice (12 weeks of age) were placed on either regular diet containing 0.35% inorganic phosphate or high phosphate diet containing 2.0% inorganic phosphate. These mice were subcutaneously injected with either (OEG2)2-IP4 (100 mg/kg) or vehicle (distilled water) three times a week and then sacrificed at 20 weeks of age to harvest their blood and kidneys. Some mice were transferred individually to metabolic cages to collect urine for 3 days before sacrifice. Serum FGF23 levels were measured using intact FGF23 ELISA (Kinos) according to the manufacturers' protocols. Serum and urine levels of phosphate were measured using Fuji Dri-Chem slides and the analyzer (Dri-Chem NX500V, Fuji, Tokyo, Japan). […] Quantitative RT-PCR reactions were performed using 20 ng of cDNA incubated with 410 nM of each primer and 6 μL of SYBR Green PCR Master mix (Toyoba, Osaka, Japan THUNDERBIRD SYBR qPCR Mix QPS-201) in a total volume of 12 μl. […] Relative mRNA levels were calculated by the comparative threshold cycle method using cyclophilin as an internal control. […] The collagen volume fraction (the ratio of the Sirius Red-positive area to the total area) was quantified using an image analysis software (IMAGE PRO 9.32, Medica Cybernetics, Rockville, MD, USA) as previously described (Hirano, Y. Kurosu et al., FEBS Open Bio. 10, 894-903. DOI:10.1002/2211-5463.1284, 2020). […]
# [2] = tested on: RPTEC/TERT 1 human proximal tubule cells; experiment: RNA sequencing of RPTEC treated with Ca/P and compound; assay type: cell-based; conditions: 50 μM compound
# Protocol: RNA sequencing Cells were cultured as described in the imaging assay and treated with a medium control (ProxUp basal medium containing 1/1 mM Ca/P), 5/7 mM Ca/P, 5/7 mM Ca/P in medium containing 50 μM (OEG2)2-IP4 or 50 μM (OEG2)2-IP4 in medium for 24 h. Total RNA was extracted using the RNeasy kit (Quiagen) according to the manufacturer's instructions. Three wells per sample group were prepared and total RNA extracted of those 3 wells pooled. mRNA was purified and RNAseq library was prepared using the TrueSeq RNA kit (Illumina). Sequencing was performed on a Novaseq 6000 (Illumina). Reads were aligned to the human reference genome GRCh38.p10 using the STAR tool (https://github.com/alexdobin/STAR) and transcripts quantified using the Kallisto program (42). Ensembl release 91 was used for the gene model definitions. […] The heatmap was plotted using R software. Overrepresentation analysis was performed on Webgestalt.org (v2019) (43), using differentially expressed genes with p≤0.01, log 2fold change≥0.5. Differential expressed genes were compared to the gene ontology—biological process functional database and as a reference set the human genome—protein coding was used. The weighted set cover of the top 30 enriched categories was plotted. For comparison of expression levels of the selected genes, the fragments per kilobase of exon model per million reads mapped (FPKM) were used. Three independent experiments were performed. RNA sequencing raw data is available on the EMBL Nucleotide Sequence Database (ENA) under the accession number PRJEB38397.
smiles,measurement,setting,value
COCCOCCO[C@@H]1C(OP(=O)(O)O)[C@H](OCCOCCOC)[C@@H](OP(=O)(O)O)C(OP(=O)(O)O)[C@H]1OP(=O)(O)O (stereo partly shown) [(OEG2)2-IP4],"collagen volume fraction (fibrosis), Picro-Sirius red staining of the kidneys, vs vehicle",[1],reduced
same,"kidney damage and fibrosis markers (Spp1, IL36a, Ngal, MMP3, Col1a1 mRNA in kidney) vs vehicle control",[1],significantly reduced
same,Ca/P-induced change in gene expression profile,"[2]; 5/7 mM Ca/P, 24 h",prevented
same,"differentially expressed genes, Ca/P+compound vs. compound only",[2]; fold change ≥1.5 and p≤0.05,77
same,"differentially expressed genes, Ca/P+compound vs. negative ctrl",[2]; fold change ≥1.5 and p≤0.05,76
same,"differentially expressed genes, Ca/P+compound vs. positive ctrl",[2]; fold change ≥1.5 and p≤0.05,2437
same,"differentially expressed genes, compound only vs. positive ctrl",[2]; fold change ≥1.5 and p≤0.05,2935
